# Experimental data as given in US10669283B2, “Compound and pharmacologically acceptable salt thereof” (MEIJI SEIKA PHARMA CO., LTD., priority 2016, dated 2020).
# Like-named read-outs stand apart in the source and are kept apart here.
# Columns and labels:
# PDE4 = PDE4 inhibition, scintillation proximity assay (SPA); type: biochemical
# How it was run: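 Compound pre-diluted 1:10 in 50 mM Tris-HCl pH 7.4, 8.3 mM MgCl2, 1.7 mM EGTA, 3 mg/mL BSA, then incubated with PDE4 and [2,8-3H]-cAMP for 120 min at room temperature. Product captured on ZnSO4-containing YSi-SPA beads for 15 min; radioactivity counted against no-enzyme blank and DMSO control.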
# [1] = Hepatic metabolic stability (rat liver microsome method); type: in vitro ADME; conditions: rat liver microsomes 0.5 mg/mL, test substance 1 μM, NADPH 1 mM, 37° C., 30 minutes
# Description: Metabolic stability in rat liver microsomes was evaluated by the following method. In 100 mM of potassium phosphate buffer solution (pH 7.4), liver microsomes (concentration at reaction: 0.5 mg/mL) and the test substance (concentration at reaction: 1 μM) were preincubated at 37° C. Five minutes later, 100 mM of potassium phosphate buffer (pH 7.4) solution of NADPH (concentration at reaction: 1 mM) was mixed thereto to start the reaction. After a predetermined time passed, acetonitrile was mixed to the reaction mixture to stop the reaction. Here, the reaction time was 0 and 30 minutes, and drug concentration measurement was performed for each time period using LC-MS. The % remaining value of the test compound was calculated from the value for 0 minutes and the value for 30 minutes, using the calculation formula below: % Remaining=(Value for 30 Minutes/Value for 0 Minutes)×100
# The results of measuring the rat liver microsome metabolic Stability (% remaining for 30-minute reaction) for the test compound by the above method were evaluated in accordance with the following evaluated basis; A: a % remaining rate of 75% or more, B: 60% or more and less than 75%, C: 45% or more and less than 60%, and D: less than 45%.
# [2] = scintillation proximity assay (SPA), evaluated as classes A, B, C, read-out: PDE4 Inhibitory Activity (concentration for the inhibition rate of 50%)
# [3] = scintillation proximity assay, class symbols, read-out: PDE4 Inhibitory Activity
Structure (SMILES),IC50 (PDE4; [2]) [µM],Residual ratio (% remaining for 30-minute reaction) [1],IC50 (PDE4; [3]) [µM]
"C[C@@H](O)COc1ccc(-c2nccs2)c2oc(N3CC4CC(C3)N4)nc12 [Example 259, (2R)-1-((2-(3,6-diazabicyclo[3.1.1]heptan-3-yl)-7-(thiazol-2-yl)benzo[d]oxazol-4-yl)oxy)propan-2-ol]",< 0.1,A (a % remaining rate of 75% or more),
"OC1CC(Oc2ccc(-c3nccs3)c3oc(N4CC5CC(C4)N5)nc23)C1 (stereo not drawn) [Example 285, 3-((2-(3,6-Diazabicyclo[3.1.1]heptan-3-yl)-7-(thiazol-2-yl)benzo[d]oxazol-4-yl)oxy)cyclobutan-1-ol]",< 0.1,A (a % remaining rate of 75% or more),
"c1csc(-c2ccc(OC3CCOCC3)c3nc(N4CC5CC(C4)N5)oc23)n1 [Example 294, 2-(3,6-Diazabicyclo[3.1.1]heptan-3-yl)-4-((tetrahydro-2H-pyran-4-yl)oxy)-7-(thiazol-2-yl)benzo[d]oxazole]",< 0.1,A (a % remaining rate of 75% or more),
"CC(C)(O)C(F)(F)Oc1ccc(-n2cccn2)c2oc(N3CC4CC(C3)N4)nc12 [Example 304, 1-((2-(3,6-Diazabicyclo[3.1.1]heptan-3-yl)-7-(1H-pyrazol-1-yl)benzo[d]oxazol-4-yl)oxy)-1,1-difluoro-2-methylpropan-2-ol]",< 0.1,A (a % remaining rate of 75% or more),
"Cc1csc(-c2ccc(OC(F)(F)C(C)(C)O)c3nc(N4CC5CC(C4)N5)oc23)n1 [Example 306, 1-((2-(3,6-Diazabicyclo[3.1.1]heptan-3-yl)-7-(4-methylthiazol-2-yl)benzo[d]oxazol-4-yl)oxy)-1,1-difluoro-2-methylpropan-2-ol]",0.1 to 1,A (a % remaining rate of 75% or more),
"OCC(F)(F)Oc1ccc(-c2ccccn2)c2oc(N3CC4CC(C3)N4)nc12 [Example 315, 2-((2-(3,6-Diazabicyclo[3.1.1]heptan-3-yl)-7-(pyridin-2-yl)benzo[d]oxazol-4-yl)oxy)-2,2-difluoroethan-1-ol]",< 0.1,A (a % remaining rate of 75% or more),
"CC(C)(O)C(F)(F)Oc1ccc(-n2cccn2)c2oc(N3CC4CCC(C3)N4)nc12 [Example 316, 1-((2-(3,8-Diazabicyclo[3.2.1]octan-3-yl)-7-(1H-pyrazol-1-yl)benzo[d]oxazol-4-yl)oxy)-1,1-difluoro-2-methylpropan-2-ol]",< 0.1,A (a % remaining rate of 75% or more),
"CC(C)(O)C(F)(F)Oc1ccc(-c2ccccn2)c2oc(N3CC4CCC(C3)N4)nc12 [Example 317, 1-((2-(3,8-Diazabicyclo[3.2.1]octan-3-yl)-7-(pyridin-2-yl)benzo[d]oxazol-4-yl)oxy)-1,1-difluoro-2-methylpropan-2-ol]",< 0.1,A (a % remaining rate of 75% or more),
"Cc1csc(-c2ccc(OC(F)(F)C(C)(C)O)c3nc(N4CC5CCC(C4)N5)oc23)n1 [Example 318, 1-((2-(3,8-Diazabicyclo[3.2.1]octan-3-yl)-7-(4-methylthiazol-2-yl)benzo[d]oxazol-4-yl)oxy)-1,1-difluoro-2-methylpropan-2-ol]",< 0.1,B (60% or more and less than 75%),
"OCC(F)(F)Oc1ccc(-c2ccc(F)cn2)c2oc(N3CC4CC(C3)N4)nc12 [Example 319, 2-((2-(3,6-Diazabicyclo[3.1.1]heptan-3-yl)-7-(5-fluoropyridin-2-yl)benzo[d]oxazol-4-yl)oxy)-2,2-difluoroethan-1-ol]",< 0.1,A (a % remaining rate of 75% or more),
"CC(C)(O)C(F)(F)Oc1ccc(-c2ncco2)c2oc(N3CC4CCC(C3)N4)nc12 [Example 321, 1-((2-(3,8-Diazabicyclo[3.2.1]octan-3-yl)-7-(oxazol-2-yl)benzo[d]oxazol-4-yl)oxy)-1,1-difluoro-2-methylpropan-2-ol]",< 0.1,A (a % remaining rate of 75% or more),
"CC(C)(O)C(F)(F)Oc1ccc(-n2nccn2)c2oc(N3CC4CCC(C3)N4)nc12 [Example 322, 1-((2-(3,8-Diazabicyclo[3.2.1]octan-3-yl)-7-(2H-1,2,3-triazol-2-yl)benzo[d]oxazol-4-yl)oxy)-1,1-difluoro-2-methylpropan-2-ol]",< 0.1,A (a % remaining rate of 75% or more),
"c1csc(-c2ccc(O[C@H]3CCOC3)c3nc(N4CC5CC(C4)N5)oc23)n1 [Example 323, 2-(3,6-Diazabicyclo[3.1.1]heptan-3-yl)-4-(((S)-tetrahydrofuran-3-yl)oxy)-7-(thiazol-2-yl)benzo[d]oxazole]",< 0.1,B (60% or more and less than 75%),
"c1csc(-c2ccc(O[C@@H]3CCOC3)c3nc(N4CC5CC(C4)N5)oc23)n1 [Example 324, 2-(3,6-Diazabicyclo[3.1.1]heptan-3-yl)-4-(((R)-tetrahydrofuran-3-yl)oxy)-7-(thiazol-2-yl)benzo[d]oxazole]",< 0.1,A (a % remaining rate of 75% or more),
"c1csc(-c2ccc(OC3COC3)c3nc(N4CC5CC(C4)N5)oc23)n1 [Example 325, 2-(3,6-Diazabicyclo[3.1.1]heptan-3-yl)-4-(oxetan-3-yloxy)-7-(thiazol-2-yl)benzo[d]oxazole]",,A (a % remaining rate of 75% or more),< 0.1
"CC(C)(O)C(F)(F)Oc1ccc(-c2ncns2)c2oc(N3CC4CCC(C3)N4)nc12 [Example 327, 1-((2-(3,8-Diazabicyclo[3.2.1]octan-3-yl)-7-(1,2,4-thiadiazol-5-yl)benzo[d]oxazol-4-yl)oxy)-1,1-difluoro-2-methylpropan-2-ol]",,B (60% or more and less than 75%),< 0.1
"Cn1ccc(-c2ccc(OC(F)(F)C(C)(C)O)c3nc(N4CC5CCC(C4)N5)oc23)n1 [Example 328, 1-((2-(3,8-Diazabicyclo[3.2.1]octan-3-yl)-7-(1-methyl-1H-pyrazol-3-yl)benzo[d]oxazol-4-yl)oxy)-1,1-difluoro-2-methylpropan-2-ol]",,A (a % remaining rate of 75% or more),< 0.1
"CC(C)(O)C(F)(F)Oc1ccc(-c2ccc(F)cn2)c2oc(N3CC4CC(C3)N4)nc12 [Example 329, 1-((2-(3,6-Diazabicyclo[3.1.1]heptan-3-yl)-7-(5-fluoropyridin-2-yl)benzo[d]oxazol-4-yl)oxy)-1,1-difluoro-2-methylpropan-2-ol]",,A (a % remaining rate of 75% or more),< 0.1
"CC(C)(O)C(F)(F)Oc1ccc(-c2ncccn2)c2oc(N3CC4CCC(C3)N4)nc12 [Example 330, 1-((2-(3,8-diazabicyclo [3.2.1]octan-3-yl)-7-(pyrimidin-2-yl)benzo [d]oxazol-4-yl)oxy)-1,1-difluoro-2-methylpropan-2-ol]",,A (a % remaining rate of 75% or more),< 0.1
"CC(C)(O)C(F)(F)Oc1ccc(-c2ccsn2)c2oc(N3CC4CCC(C3)N4)nc12 [Example 331, 1-((2-(3,8-diazabicyclo [3.2.1]octan-3-yl)-7-(isothiazol-3-yl)benzo [d]oxazol-4-yl)oxy)-1,1-difluoro-2-methylpropan-2-ol]",,B (60% or more and less than 75%),< 0.1
"CC(C)(O)C(F)(F)Oc1ccc(-c2ccc(F)cn2)c2oc(N3CC4CCC(C3)N4)nc12 [Example 332, 1-((2-(3,8-diazabicyclo [3.2.1]octan-3-yl)-7-(5-fluoropyridin-2-yl)benzo[d]oxazol-4-yl)oxy)-1,1-difluoro-2-methylpropan-2-ol]",,A (a % remaining rate of 75% or more),< 0.1
"Cc1nsc(-c2ccc(OC(F)(F)C(C)(C)O)c3nc(N4CC5CCC(C4)N5)oc23)n1 [Example 333, 1-((2-(3,8-diazabicyclo [3.2.1]octan-3-yl)-7-(3-methyl-1,2,4-thiadiazol-5-yl)benzo[d]oxazol-4-yl)oxy)-1,1-difluoro-2-methylpropan-2-ol]",,B (60% or more and less than 75%),0.1 to 1
"O=S(=O)(c1ccc(-c2nccs2)c2oc(N3CC4CC(C3)N4)nc12)C(F)(F)F [Example 334, 2-(3,6-diazabicyclo [3.1.1]heptan-3-yl)-7-(thiazol-2-yl)-4-((trifluoromethyl)sulfonyl) benzo[d]oxazole]",,B (60% or more and less than 75%),< 0.1
"N#Cc1ccc(-c2nccs2)c2oc(N3CC4CC(C3)N4)nc12 [Example 335, 2-(3,6-diazabicyclo [3.1.1]heptan-3-yl)-7-(thiazol-2-yl)benzo [d]oxazole-4-carbonitrile]",,A (a % remaining rate of 75% or more),< 0.1
